Results reported in ChEMBL document CHEMBL2062510, “Acylphloroglucinols from Elaphoglossum crassipes: antidepressant-like activity of crassipin A” (J Nat Prod, 2012).
Activity calls are given as the source filed them. The rule behind the calls is not given here.

Legend:
Mus musculus [1] = test: Antidepressant activity in CF1 mouse assessed as reduction in immobility at 20 mg/kg, po measured after 60 mins by forced-swimming test; type: functional, organism-based; parameters: dose 20 mg/kg
Mus musculus [2] = test: Toxicity in CF1 mouse assessed as change in number of grooming at 15 mg/kg, po measured after 60 mins by open-field test; type: organism-based; parameters: dose 15 mg/kg, route oral; conditions: in vivo, 1 h
Mus musculus [3] = test: Antidepressant activity in CF1 mouse assessed as reduction in immobility at 15 mg/kg, po measured after 60 mins by forced-swimming test; type: functional, organism-based; parameters: dose 15 mg/kg
Mus musculus [4] = test: Toxicity in CF1 mouse assessed as change in number of crossing at 15 mg/kg, po measured after 60 mins by open-field test; type: organism-based; parameters: dose 15 mg/kg, route oral; conditions: in vivo, 1 h
Mus musculus [5] = test: Toxicity in CF1 mouse assessed as change in number of rearing at 15 mg/kg, po measured after 60 mins by open-field test; type: organism-based; parameters: dose 15 mg/kg, route oral; conditions: in vivo, 1 h

| SMILES | Activity (Mus musculus [1]) | Activity (Mus musculus [2]) | Activity (Mus musculus [3]) | Activity (Mus musculus [4]) | Activity (Mus musculus [5]) |
| --- | --- | --- | --- | --- | --- |
| CN(C)CCCN1c2ccccc2CCc2ccccc21 | Active |  |  |  |  |
| CC/C=C(\OC(C)=O)C1=C(OC(C)=O)[C@](C)(C/C=C(\C)CCC=C(C)C)C(OC(C)=O)=C(Cc2c(OC(C)=O)c3c(c(C(=O)CCC)c2OC(C)=O)OC(C)(C)C=C3)C1=O |  | Non-toxic | Active | Non-toxic | Non-toxic |
| CCCC(=O)C1=C(O)[C@](C)(C/C=C(\C)CCC=C(C)C)C(O)=C(Cc2c(O)c3c(c(C(=O)CCC)c2O)OC(C)(C)C=C3)C1=O [CRASSIPIN A] |  | Non-toxic | Active | Non-toxic | Non-toxic |
